According to ChEMBL document CHEMBL1201862, “PubChem BioAssay data set” (2004):
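Exposure lasted 48 hours, with cells grown in 96-well plates and compounds tested at five concentrations. Abbreviation: GI50, concentration required for 50% inhibition of growth.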 The source made the active and inactive calls. Cut-off read from the data, not from the text of the source: active = GI50 up to about 1.1 µM and inactive = higher.

Legend:
Assay in all cases: NCI anticancer screen, dose series, 48 h
A498 = system: A498
K562 = system: K562
HCT-15 = system: HCT-15
U-251 = system: U-251
NCI/ADR-RES = system: NCI/ADR-RES
Hs-578T = system: Hs-578T
ACHN = system: ACHN
EKVX = system: EKVX
BT-549 = system: BT-549
MCF7 = system: MCF7
IGROV-1 = system: IGROV-1
PC-3 = system: PC-3
Malme-3M = system: Malme-3M
MDA-MB-231 = system: MDA-MB-231
MDA-N = system: MDA-N
SF-268 = system: SF-268
SR = system: SR
A549 = system: A549
UO-31 = system: UO-31
SK-OV-3 = system: SK-OV-3
SK-MEL-2 = system: SK-MEL-2
COLO 205 = system: COLO 205
HCT-116 = system: HCT-116
RXF 393 = system: RXF 393
DU-145 = system: DU-145
TK-10 = system: TK-10
HCC 2998 = system: HCC 2998
UACC-257 = system: UACC-257
NCI-H23 = system: NCI-H23
SN12C = system: SN12C
NCI-H226 = system: NCI-H226
SF-295 = system: SF-295
T47D = system: T47D
MDA-MB-435 = system: MDA-MB-435
M14 = system: M14
OVCAR-4 = system: OVCAR-4
MOLT-4 = system: MOLT-4
CCRF-CEM = system: CCRF-CEM
SW-620 = system: SW-620
786-0 = system: 786-0
CAKI-1 = system: CAKI-1
OVCAR-3 = system: OVCAR-3
SNB-19 = system: SNB-19
HOP-92 = system: HOP-92
HL-60 = system: HL-60
RPMI-8226 = system: RPMI-8226
SNB-75 = system: SNB-75
HT-29 = system: HT-29
SK-MEL-5 = system: SK-MEL-5
SK-MEL-28 = system: SK-MEL-28
SF-539 = system: SF-539
OVCAR-5 = system: OVCAR-5
OVCAR-8 = system: OVCAR-8
HOP-62 = system: HOP-62
UACC-62 = system: UACC-62
KM12 = system: KM12
NCI-H460 = system: NCI-H460
LOX IMVI = system: LOX IMVI
NCI-H522 = system: NCI-H522

## COc1ccc(/C=C/C=C2C(=O)NC(=S)NC2=O)cc1
A498
  GI50: 33.9 µM (inactive)
K562
  GI50: 2.21 µM (inactive)
HCT-15
  GI50: 3.64 µM
U-251
  GI50: 2.16 µM (inactive)
NCI/ADR-RES
  GI50: 3.3 µM (inactive)
Hs-578T
  GI50: 6.44 µM (inactive)
ACHN
  GI50: 5.08 µM (inactive)
EKVX
  GI50: 8.91 µM (inactive)
BT-549
  GI50: 2.05 µM (inactive)
MCF7
  GI50: 7.74 µM (inactive)
IGROV-1
  GI50: 3.91 µM (inactive)
PC-3
  GI50: 12.6 µM (inactive)
Malme-3M
  GI50: 3.34 µM (inactive)
MDA-MB-231
  GI50: 2.11 µM (inactive)
MDA-N
  GI50: 4.07 µM (inactive)
SF-268
  GI50: 4.68 µM (inactive)
SR
  GI50: 1.35 µM (inactive)
A549
  GI50: 20.3 µM (inactive)
UO-31
  GI50: 7.45 µM (inactive)
SK-OV-3
  GI50: 17.7 µM (inactive)
SK-MEL-2
  GI50: 16.1 µM (inactive)
COLO 205
  GI50: 3.83 µM (inactive)
HCT-116
  GI50: 4.7 µM (inactive)
RXF 393
  GI50: 4.35 µM (inactive)
DU-145
  GI50: 6.03 µM (inactive)
TK-10
  GI50: 2.52 µM (inactive)
HCC 2998
  GI50: 8.15 µM (inactive)
UACC-257
  GI50: 9.62 µM (inactive)
NCI-H23
  GI50: 9.71 µM (inactive)
SN12C
  GI50: 7.35 µM (inactive)
NCI-H226
  GI50: 15.7 µM (inactive)
SF-295
  GI50: 16.2 µM (inactive)
T47D
  GI50: 34.9 µM (inactive)
MDA-MB-435
  GI50: 2.59 µM (inactive)
M14
  GI50: 10.1 µM (inactive)
OVCAR-4
  GI50: 31.2 µM (inactive)
MOLT-4
  GI50: 2.64 µM (inactive)
CCRF-CEM
  GI50: 1.59 µM (inactive)
SW-620
  GI50: 1.78 µM (inactive)
786-0
  GI50: 2.35 µM (inactive)
CAKI-1
  GI50: 9.95 µM (inactive)
OVCAR-3
  GI50: 6.78 µM (inactive)
SNB-19
  GI50: 7.59 µM (inactive)
HOP-92
  GI50: 12.8 µM (inactive)
HL-60
  GI50: 0.805 µM (active)
RPMI-8226
  GI50: 4.91 µM (inactive)
SNB-75
  GI50: 17.7 µM (inactive)
HT-29
  GI50: 5.77 µM (inactive)
SK-MEL-5
  GI50: 13.3 µM (inactive)
SK-MEL-28
  GI50: 1.76 µM (inactive)
SF-539
  GI50: 4.41 µM (inactive)
OVCAR-5
  GI50: 21 µM (inactive)
OVCAR-8
  GI50: 4.03 µM (inactive)
HOP-62
  GI50: 19.4 µM (inactive)
UACC-62
  GI50: 3.07 µM (inactive)
KM12
  GI50: 8.79 µM (inactive)
NCI-H460
  GI50: 12.5 µM (inactive)
LOX IMVI
  GI50: 1.89 µM (inactive)

## C[C@H]1C(=O)C2=C[C@H]1CCC(=O)[C@]1(C)CCCC(C)(C)[C@H]1C[C@H]2O
A498
  GI50: 12.1 µM (inactive)
K562
  GI50: 12.4 µM (inactive)
HCT-15
  GI50: 14.3 µM
U-251
  GI50: 15.1 µM (inactive)
NCI/ADR-RES
  GI50: 21.5 µM (inactive)
Hs-578T
  GI50: 19 µM (inactive)
ACHN
  GI50: 17.3 µM (inactive)
EKVX
  GI50: 13.1 µM (inactive)
BT-549
  GI50: 28.2 µM (inactive)
MCF7
  GI50: 13.7 µM (inactive)
IGROV-1
  GI50: 37.9 µM (inactive)
PC-3
  GI50: 33.3 µM (inactive)
Malme-3M
  GI50: 20.6 µM (inactive)
MDA-MB-231
  GI50: 5.38 µM (inactive)
MDA-N
  GI50: 31.6 µM (inactive)
SF-268
  GI50: 20.5 µM (inactive)
SR
  GI50: 17.5 µM (inactive)
A549
  GI50: 19 µM (inactive)
UO-31
  GI50: 27.4 µM (inactive)
SK-OV-3
  GI50: 39.6 µM (inactive)
SK-MEL-2
  GI50: > 100 µM (inactive)
COLO 205
  GI50: 14.3 µM (inactive)
HCT-116
  GI50: 31.7 µM (inactive)
RXF 393
  GI50: 11.5 µM (inactive)
DU-145
  GI50: 28.2 µM (inactive)
TK-10
  GI50: 15.3 µM (inactive)
UACC-257
  GI50: 32.3 µM (inactive)
NCI-H23
  GI50: 21.8 µM (inactive)
SN12C
  GI50: 26.9 µM (inactive)
NCI-H226
  GI50: 19.7 µM (inactive)
SF-295
  GI50: 33.3 µM (inactive)
T47D
  GI50: 17.6 µM (inactive)
MDA-MB-435
  GI50: 31.2 µM (inactive)
M14
  GI50: 13.2 µM (inactive)
OVCAR-4
  GI50: 48.6 µM (inactive)
MOLT-4
  GI50: 22.1 µM (inactive)
CCRF-CEM
  GI50: 15.8 µM (inactive)
SW-620
  GI50: 14.9 µM (inactive)
786-0
  GI50: 17.1 µM (inactive)
CAKI-1
  GI50: 22.4 µM (inactive)
OVCAR-3
  GI50: 29.2 µM (inactive)
SNB-19
  GI50: > 100 µM (inactive)
HOP-92
  GI50: 24.3 µM (inactive)
HL-60
  GI50: 16 µM (inactive)
RPMI-8226
  GI50: 12.5 µM (inactive)
NCI-H522
  GI50: 0.986 µM (active)
SNB-75
  GI50: 16.7 µM (inactive)
HT-29
  GI50: 13.9 µM (inactive)
SK-MEL-28
  GI50: 40.1 µM (inactive)
SF-539
  GI50: 15.4 µM (inactive)
OVCAR-5
  GI50: 25.4 µM (inactive)
OVCAR-8
  GI50: 17.5 µM (inactive)
HOP-62
  GI50: 97.5 µM (inactive)
UACC-62
  GI50: 36.5 µM (inactive)
KM12
  GI50: 19 µM (inactive)
NCI-H460
  GI50: 21.9 µM (inactive)
LOX IMVI
  GI50: 17.3 µM (inactive)
